Reference: BindingDB's records for doi:10.1021/jm00185a027 (1981)

Target: Aldo-keto reductase family 1 member B1 (Oryctolagus cuniculus) (UniProt P15122)
Test: Binding affinity towards rabbit aldose reductase

Ki: 400 nM
SMILES: CN(C)S(=O)(=O)c1ccc2oc3ccc(C(=O)O)cc3c(=O)c2c1 [7-Dimethylsulfamoyl-9-oxo-9H-xanthene-2-carboxylic acid]
